Reference: PMC4038613, “A New Class of Multimerization Selective Inhibitors of HIV-1 Integrase” (PLoS Pathogens, 2014)
Like-named read-outs stand apart in the source and are kept apart here.

What was measured:
[1] = biological target: HIV-1 IN (Human immunodeficiency virus type 1 group M subtype B, UniProt P12497); conditions: IC50 for inhibiting IN-LEDGF/p75 binding divided by EC50 for aberrant IN multimerization; fold
Experimental: HTRF-based IN multimerization and IN-LEDGF/p75 binding assays were carried out as described previously [33]. The HTRF signal was recorded using a Perkin Elmer Multimode EnSpire plate reader.

[2] = test system: HIV-1 expression; type: cell-based; conditions: for inhibition of HIV-1 expression: target cells
[3] = test system: HIV-1 particles; experiment: Virus production (Gag p24 ELISA) and virion protein processing (immunoblot); type: cell-based; conditions: 1 µM KF116
Experimental: HEK293T cells (2×10^6 cells/100 mm culture dish in 10 ml of complete medium) were transfected with HIV-1 provirus (pNL4-3) and cultured for 24 h to ensure expression of the provirus as described above. Next, the cells were treated with the indicated inhibitor or diluent control (DMSO) for 1 h. The culture supernatant was replaced with fresh complete medium containing either the inhibitor or DMSO, and cells were then cultured for another 24 h to allow for the production of HIV-1 particles in the presence of the inhibitor or diluent control. The virus containing cell-free supernatant was collected, filtered through 0.45 µm filter, and the amounts of viral particles produced was measured by HIV-1 Gag p24 ELISA (ZeptoMetrix) following manufacturer's protocol. Equivalent amounts of virions (∼5 µg p24 based on HIV-1 p24 ELISA) were concentrated over a 25% sucrose cushion by ultra-centrifugation at 28,000 rpm for 2 h at 4°C in SW41 rotor (Beckman). Pelleted virions were lysed in 100 µL RIPA buffer containing 50 mM Tris (pH 8.0), 150 mM NaCl, 0.1% SDS, 1% Triton-X, 1% deoxycholic acid, and 2 mM PMSF. Indicated amounts of concentrated virions were resolved by SDS-PAGE (4–12%, Invitrogen) and immunoblotted.
HEK293T cells were transfected with HIV-1 provirus (pNL4-3). […] (A) Virus-containing cell-free supernatant were harvested and cell-free Gag was measured by HIV-1 Gag p24 ELISA. […]

[4] = test system: HIV-1; experiment: Antiviral assay, late stage (inhibitor added to producer cells); type: cell-based; conditions: Human immunodeficiency virus 1, virions prepared in presence of inhibitor, untreated target cells; called IC50
Experimental: Results represent mean ± SD from three independent experiments.
For late stage experiments, the progeny virions were prepared in the presence of the indicated concentrations of the test inhibitor or diluent control (DMSO) and were then used to infect untreated target cells.

[5] = test system: HIV-1; experiment: Antiviral assay, early stage (inhibitor added to target cells); type: cell-based; conditions: called IC50
[6] = test system: HIV-1 virions in HEK293T cells; experiment: Viral entry assay; type: cell-based; conditions: virions produced with 1 µM KF116
[7] = test system: HIV-1NL4-3; experiment: microbe, parasite or virus in culture; type: cell-based
[8] = test system: HIV-1 capsid (p24); experiment: Sucrose density gradient fractionation of detergent-lysed virions; type: cell-based; conditions: 1 µM KF116, fractions 18–20
Experimental: Cell-free virions were harvested, detergent-lysed, and separated on 30–70% linear sucrose density gradients. Twenty-one 0.5 ml fractions were collected from the top of the gradient and subjected to SDS-PAGE and immunoblotted with HIV-1 Gag antisera to monitor the distribution of HIV-1 capsid. […] (D) Quantitation of HIV-1 capsid (p24) signal intensity from (B) as measured by ImageJ software. Graph represents the relative distribution of HIV-1 capsid (p24) in each of the sucrose density gradient fractions.
Sucrose density gradient fractionation was carried out as described previously [74] with some modifications. Briefly, HIV-1 virions were produced in the presence of the inhibitor or diluent control (DMSO) and cell-free virions were concentrated over a 25% sucrose cushion by ultra-centrifugation at 28,000 rpm for 2 h at 4°C in SW41 rotor (Beckman). Pelleted virions were resuspended in 300 µl STE buffer (10 mM Tris pH 7.5, 100 mM NaCl, 1 mM EDTA), lysed with 0.5% Triton X100 for 2 minutes at room temperature. Lysed virions were loaded on 30–70% linear sucrose density gradients in STE buffer, and ultra-centrifuged at 28,500 rpm for 16 h at 4°C in SW41 rotor (Beckman). Twenty-one 0.5-ml fractions were collected from the top of the gradient and subjected to SDS-PAGE and immunoblotted with HIV-1 Gag antisera to monitor the distribution of HIV-1 capsid.

Cc1nc(-c2nc3ccc(Cl)cc3[nH]2)c(C)c(-c2ccccc2)c1C(OC(C)(C)C)C(=O)O (stereo not shown) [KF116]
Selectivity ratio, IC50 IN-LEDGF/EC50 aberrant IN multimerization [1]: 58.5
inhibition of HIV-1 expression ([2]; 5 µM): did not significantly inhibit HIV-1 expression
inhibition of HIV-1 expression ([2]; 10 µM): did not significantly inhibit HIV-1 expression
reduction in target cell HIV-1 expression ([2]; virus-producer cells treated with 0.1 µM): ~77%
effect on HIV-1 Gag/Gag-Pol protein processing [3]: did not affect
effect on virus particle production [3]: did not affect
EC50 [4]: ~30 nM
EC50 ([5]; Human immunodeficiency virus 1, read-out: EC50, Early Stage, target cells, inhibitor added to target cells, untreated virions): 50.9 ± 4.3 µM
EC50 ([5]; read-out: EC50, Early Stage, target cells, inhibitor added to target cells, untreated virions): ~50 µM
effect on viral entry (incoming genomic RNA in target cells) [6]: does not significantly compromise viral entry
IC50 ([7]; Human immunodeficiency virus 1, read-out: Antiviral activity (IC50), HIV-1NL4-3, full replication cycle): ~24 nM
EC50 ([7]; Human immunodeficiency virus 1, read-out: EC50, Full Replication Cycle, KF116 added to both producer and target cells, mean ± SD, three experiments): 24 nM
reduction of HIV-1 capsid (p24) in higher density fractions [8]: > 95%
